{"source": "paper PMC11475281", "about": "“A Novel Liver Cancer-Selective Histone Deacetylase Inhibitor Is Effective against Hepatocellular Carcinoma and Induces Durable Responses with Immunotherapy” (ACS Pharmacology & Translational Science, 2024)", "key": {"Hep-G2 (HCC)": {"system": "Hep-G2 (HCC)", "test": "MTS cell viability assay, 72 h", "format": "cell-based, human", "conditions": "Table S2; read-out: Anti-proliferation IC50 Hep-G2", "excerpt": "We then screened STR-V-53 and all the synthesized glycosylated HDACi for their effects on the viability of three cell lines: A549 (lung adenocarcinoma), Hep-G2 (HCC), and VERO (a normal kidney epithelial cell). We used SORA and STR-V-48, a previously disclosed nonglycosylated compound, as controls.[25] […] Additionally, compound STR-V-167, the peracetylated analog of STR-V-53, largely retained the Hep-G2 selectivity of STR-V-53 (Table S2). Subsequently, we evaluated the effects of STR-V-53 on cell proliferation using a panel of human HCC cell lines (Huh-7, SK-Hep-1, and Hep3B) as well as Kupffer cells (liver resident macrophages) by MTS assay. We observed that STR-V-53 is 7- to 16-fold more cytotoxic against these HCC cell lines relative to the Kupffer cells (Figure 1g). […] Based on their weak HDAC and cell proliferation inhibition activities, we de-emphasized further evaluation of the class III compounds.\n10-017-CV), supplemented with 10% fetal bovine serum (FBS) (Corning, 35-010-CV). Hep-G2 cells were cultured in phenol red-free Minimum Essential Medium (MEM) (Corning, 17-305-CV), supplemented with 10% fetal bovine serum (FBS). SK-Hep-1 in ATCC-formulated EMEM (ATCC® 30–2003™); Huh-7 in DMEM (containing 4 mM L-glutamine and 1 g/L glucose) with […]\nKupffer Cell Media (Sekisui XenoTech, LLC, Cat. #K8700). Cells were seeded into a 96-well plate (2000 counts/100uL) for 24 h prior to treatment and then treated with various drug concentrations for 72 h. All drugs were dissolved in media with DMSO concentration maintained at 1%. The effect of compounds on cell viability was measured using the MTS assay (CellTiter 96 Aqueous One Solution and CellTiter 96 Non-Radioactive Cell Proliferation Assays, Promega, Madison, WI) as described by the manufacturer. IC50s were determined using Prism GraphPad 8. […]"}, "[1]": {"system": "NCI-60 panel cancer cells", "test": "NCI-60 panel one-dose screen", "format": "cell-based", "conditions": "10 μM", "protocol": "To further investigate the cancer cell-type selectivity of these glycosylated HDACi, we screened STR-V-53 (10 μM) in the NCI 60 panel. […] The antiproliferative effect of STR-V-53 against Hep-G2 cells and its lack of growth inhibition in the NCI-60 panel strongly support the HCC cell-selective attribute of STR-V-53 and possibly other lead glycosylated HDACi identified herein."}, "cytochrome P450": {"system": "cytochrome P450", "format": "in vitro ADME", "conditions": "maximum tested concentration of 100 μM"}, "Hep-G2 cells": {"system": "Hep-G2 cells", "test": "RNA-seq differential gene expression vs DMSO control", "format": "cell-based, human", "protocol": "To obtain transcriptome level evidence that may shed light on the HCC-selectivity and/or the enhanced potency of the combination of STR-V-53 with anti-PD-1 antibody, we performed RNA sequencing (RNA-seq) analysis on STR-V-53-treated Hep-G2 cells, incubated at IC50 and 2× IC50 for 24 h, relative to the untreated (DMSO) control. We first conducted gene set enrichment analysis (GSEA) using hallmark and gene ontology biological process (GOBP) gene sets to analyze the effect of STR-V-53 vs DMSO-treated control on the Hep-G2 transcriptome.[42],[43] […] Negative enrichment of the G2 M checkpoint pathway supports the finding that STR-V-53 induced S phase arrest in Hep-G2 cells (see Figure 4).\nSubsequently, we focused our analysis on specific genes of interest, including gene signatures for HDAC inhibition and immune response pathways. […]\nand allowed to grow for 48 hours.\nRCF, with this washing step repeated twice. Next, using RNeasy Plus Mini Kit and Qiagen QIAcube […]\ndetermined using a DeNovix spectrophotometer. Subsequently, quality control of the RNA samples was […]\n(base call error rate of […]).\nFASTQ files of samples were analyzed through the RNA-seq pipeline provided by the Gryder lab1. Reads were aligned to hg38 using STAR version 2.5.3a, and gene expression was calculated as Transcripts per Million mapped reads (TPM) using RSEM version 1.3.3 and filtered for coding genes. Differentially expressed genes lists were generated for each sample by calculating log2 fold change of the averaged sample TPM versus the averaged DMSO-treated control cells TPM and filtering for genes with |log2 fold change| > -1 and false discovery rate < 0.25. Hallmark2 and gene ontology biological processes (GOBP)3 gene set enrichment analysis (GSEA) was performed on the differentially expressed gene lists using the GSEA software (parameters: Run GSEAPreranked, Collapse/Remap- No_Collapse)4. GSEA results were interpreted and visualized using scripts provided by the Gryder lab1.Volcano plots were generated using DESeq2v1.41.1 and visualized with the ggplot2 R packages5,6. […]"}}}
{"smiles": "O=C(CCCCCCn1cc(-c2ccc(O[C@@H]3O[C@H](CO)[C@@H](O)[C@H](O)[C@H]3O)cc2)nn1)NO", "note": "[STR-I-195]", "values": [{"measurement": "IC50", "setting": "Hep-G2 (HCC)", "value": "22.3 ± 2", "unit": "µM"}]}
{"smiles": "O=C(CCCCCCn1cc(-c2ccc(O[C@H]3O[C@H](CO)[C@@H](O)[C@H](O)[C@H]3O)cc2)nn1)NO", "note": "[STR-V-53]", "values": [{"measurement": "Mean cell growth in NCI-60 panel", "setting": "[1]", "value": 99.6, "unit": "%"}, {"measurement": "Cytochrome P450 inhibition", "setting": "cytochrome P450", "value": "no inhibition"}, {"measurement": "ANP32B log2 fold change", "setting": "Hep-G2 cells; 2× IC50 (20 μM), 24 h", "value": "−2.3"}, {"measurement": "CCL16 log2 fold change", "setting": "Hep-G2 cells; 2× IC50 (20 μM), 24 h", "value": "−1.8"}, {"measurement": "CCL20 log2 fold change", "setting": "Hep-G2 cells; 2× IC50 (20 μM), 24 h", "value": 0.9}, {"measurement": "CCL25 log2 fold change", "setting": "Hep-G2 cells; 2× IC50 (20 μM), 24 h", "value": 1.2}, {"measurement": "CCL26 log2 fold change", "setting": "Hep-G2 cells; 2× IC50 (20 μM), 24 h", "value": 2.9}, {"measurement": "CDKN1A (p21) log2 fold change", "setting": "Hep-G2 cells; 2× IC50 (20 μM), 24 h", "value": 3.3}, {"measurement": "CX3CL1 log2 fold change", "setting": "Hep-G2 cells; 2× IC50 (20 μM), 24 h", "value": "−1.7"}, {"measurement": "CXCL8 log2 fold change", "setting": "Hep-G2 cells; 2× IC50 (20 μM), 24 h", "value": "−2.0"}, {"measurement": "CXCL11 log2 fold change", "setting": "Hep-G2 cells; 2× IC50 (20 μM), 24 h", "value": 1.3}, {"measurement": "DKK-1 log2 fold change", "setting": "Hep-G2 cells; 2× IC50 (20 μM), 24 h", "value": 6.2}, {"measurement": "MT1X log2 fold change", "setting": "Hep-G2 cells; 2× IC50 (20 μM), 24 h", "value": 3.4}, {"measurement": "PDCD1 log2 fold change", "setting": "Hep-G2 cells; 2× IC50 (20 μM), 24 h", "value": 3.0}, {"measurement": "TUBA1A log2 fold change", "setting": "Hep-G2 cells; 2× IC50 (20 μM), 24 h", "value": 5.4}, {"measurement": "TYMS log2 fold change", "setting": "Hep-G2 cells; 2× IC50 (20 μM), 24 h", "value": "−3.6"}, {"measurement": "Expression of MHC (HLA) complex, CD8+, and PD-1 (PDCD1) /PD-L1 (CD274) genes", "setting": "Hep-G2 cells; Hep-G2, RNA-seq, 24 h", "value": "upregulates"}, {"measurement": "Expression of GLUTs 1, 2, 9, and 14", "setting": "Hep-G2 cells; Hep-G2, within 24 h of uptake", "value": "downregulation"}, {"measurement": "Expression of GLUTs 3, 4, 6, and 12", "setting": "Hep-G2 cells; Hep-G2, within 24 h of uptake", "value": "upregulation"}, {"measurement": "ANP32B log2 fold change", "setting": "Hep-G2 cells; IC50 (10 μM), 24 h", "value": "−1.8"}, {"measurement": "CCL16 log2 fold change", "setting": "Hep-G2 cells; IC50 (10 μM), 24 h", "value": "−1.0"}, {"measurement": "CCL20 log2 fold change", "setting": "Hep-G2 cells; IC50 (10 μM), 24 h", "value": 1.9}, {"measurement": "CCL25 log2 fold change", "setting": "Hep-G2 cells; IC50 (10 μM), 24 h", "value": 0.9}, {"measurement": "CCL26 log2 fold change", "setting": "Hep-G2 cells; IC50 (10 μM), 24 h", "value": 2.1}, {"measurement": "CDKN1A (p21) log2 fold change", "setting": "Hep-G2 cells; IC50 (10 μM), 24 h", "value": 3.1}, {"measurement": "CX3CL1 log2 fold change", "setting": "Hep-G2 cells; IC50 (10 μM), 24 h", "value": "−1.5"}, {"measurement": "CXCL8 log2 fold change", "setting": "Hep-G2 cells; IC50 (10 μM), 24 h", "value": "−1.6"}, {"measurement": "CXCL11 log2 fold change", "setting": "Hep-G2 cells; IC50 (10 μM), 24 h", "value": 1.1}, {"measurement": "DKK-1 log2 fold change", "setting": "Hep-G2 cells; IC50 (10 μM), 24 h", "value": 6.5}, {"measurement": "MT1X log2 fold change", "setting": "Hep-G2 cells; IC50 (10 μM), 24 h", "value": 2.9}, {"measurement": "PDCD1 log2 fold change", "setting": "Hep-G2 cells; IC50 (10 μM), 24 h", "value": 2.1}, {"measurement": "TUBA1A log2 fold change", "setting": "Hep-G2 cells; IC50 (10 μM), 24 h", "value": 4.7}, {"measurement": "TYMS log2 fold change", "setting": "Hep-G2 cells; IC50 (10 μM), 24 h", "value": "−3.2"}, {"measurement": "Body weight change of tumor-bearing mice (weight loss)", "setting": "RIL-175 murine HCC; RIL-175 model, 12 mice per group", "value": "4/12"}, {"measurement": "Tumor growth", "setting": "RIL-175 murine HCC; RIL-175 model, n = 12", "value": "minor effect on tumor growth"}, {"measurement": "Overall survival (Kaplan–Meier)", "setting": "RIL-175 murine HCC; RIL-175 model, n = 12, vs IgG control", "value": "no impact on survival"}, {"measurement": "Overt toxicity during the treatment period", "setting": "RIL-175 murine HCC; RIL-175 tumor-bearing mice", "value": "no significant overt toxicity"}]}
{"smiles": "O=C(CCCCCCn1cc(-c2ccc3cc(O[C@H]4O[C@H](CO)[C@@H](O)[C@H](O)[C@H]4O)ccc3c2)nn1)NO", "note": "[STR-V-114]", "values": [{"measurement": "IC50", "setting": "Hep-G2 (HCC)", "value": "6.7 ± 1.6", "unit": "µM"}]}
